Results: patent publication US11485733B2, “Azaquinoline derivatives” (BAYER ANIMAL HEALTH GMBH, priority 2017, dated 2022)

How the values were obtained:
D. immitis Slo-1 = D. immitis Slo-1 (Dirofilaria immitis, UniProt I0DFK5); assay: D. immitis Slo-1, action at a recombinant CHO cell line (membrane potential, FLIPR); format: cell-based
[1] = test system: Nippostrongylus brasiliensis; assay: Nippostrongylus brasiliensis (NIPOBR) adult worms, acetylcholine esterase readout; conditions: read-out: activity (reduction of AChE compared to negative control); for inhibition at 1 µg/mL: at 1 μg/ml (1 ppm); for inhibition at 10 µg/mL: at 10 μg/ml (10 ppm)
Experimental: In Vitro Assay 3: Nippostrongylus brasiliensis (NIPOBR)
Adult Nippostrongylus brasiliensis were washed with saline buffer containing 100 U/ml penicillin, 0.1 mg/ml streptomycin and 2.5 μg/ml amphotericin B. Test compounds were dissolved in DMSO and worms were incubated in medium in a final concentration of 10 μg/ml (10 ppm) respectively 1 μg/ml (1 ppm). An aliquot of the medium was used to determine the acetylcholine esterase activity in comparison to a negative control. The principle of measuring acetylcholine esterase as readout for anthelmintic activity was described in Rapson et al (1986) and Rapson et al (1987).

Dirofilaria immitis = Dirofilaria immitis (DIROIM L4) larval motility; conditions: 72 h, read-out: EC50 (reduction of motility)
[2] = test system: Dirofilaria immitis microfilariae; assay: Dirofilaria immitis microfilariae (DIROIM L1) motility; conditions: 72 h, read-out: EC50 (reduction of motility)
C. elegans Slo-1a = C. elegans Slo-1a (Caenorhabditis elegans, UniProt Q95V25); conditions: pE50 (negative decadic logarithm of EC50), CHO cells expressing C. elegans Slo-1a; voltage sensitive dye, 70 mM KCl
Sequence of C. elegans Slo-1a (Q95V25 whole entry): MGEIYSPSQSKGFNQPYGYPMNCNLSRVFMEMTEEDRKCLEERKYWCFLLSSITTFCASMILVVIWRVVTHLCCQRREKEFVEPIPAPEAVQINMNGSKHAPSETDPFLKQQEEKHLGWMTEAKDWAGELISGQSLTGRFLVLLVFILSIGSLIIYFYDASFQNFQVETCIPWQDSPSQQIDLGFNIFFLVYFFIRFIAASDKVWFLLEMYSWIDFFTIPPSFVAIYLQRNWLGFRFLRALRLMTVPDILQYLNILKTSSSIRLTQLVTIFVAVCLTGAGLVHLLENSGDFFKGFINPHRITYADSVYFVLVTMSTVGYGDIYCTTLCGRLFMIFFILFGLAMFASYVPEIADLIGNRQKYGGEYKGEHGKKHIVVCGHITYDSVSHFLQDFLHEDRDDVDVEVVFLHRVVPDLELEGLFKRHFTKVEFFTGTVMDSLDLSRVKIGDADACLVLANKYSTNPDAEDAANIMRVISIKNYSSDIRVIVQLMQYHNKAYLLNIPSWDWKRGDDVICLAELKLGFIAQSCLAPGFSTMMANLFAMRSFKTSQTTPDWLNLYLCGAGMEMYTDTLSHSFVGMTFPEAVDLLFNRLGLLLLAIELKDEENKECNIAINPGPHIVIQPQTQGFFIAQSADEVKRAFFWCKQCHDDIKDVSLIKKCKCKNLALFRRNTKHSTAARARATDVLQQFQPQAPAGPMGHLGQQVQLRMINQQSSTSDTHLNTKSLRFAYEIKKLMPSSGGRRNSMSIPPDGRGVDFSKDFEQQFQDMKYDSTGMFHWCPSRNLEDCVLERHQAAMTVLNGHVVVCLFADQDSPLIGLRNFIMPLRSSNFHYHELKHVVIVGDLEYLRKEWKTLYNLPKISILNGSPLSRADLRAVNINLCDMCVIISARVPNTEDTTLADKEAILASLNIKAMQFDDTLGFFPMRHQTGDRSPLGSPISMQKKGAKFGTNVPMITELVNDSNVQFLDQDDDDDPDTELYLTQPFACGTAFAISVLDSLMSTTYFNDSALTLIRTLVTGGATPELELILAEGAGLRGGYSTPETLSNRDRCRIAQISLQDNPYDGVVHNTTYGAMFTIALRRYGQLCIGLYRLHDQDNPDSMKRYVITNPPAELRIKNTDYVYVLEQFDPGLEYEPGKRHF
Experimental: Generation of a Stable C. elegans CHO Cell Line
A CHO cell line was obtained from ATCC, code ATCC CRL-9096. […] The transfection solution included 300 μL OptiMEM (Life Technologies, Nr.: 31985), 2 μL (=6 μg) of plasmid DNA containing the C. elegans Slo 1a gene and 9 μL FugeneHD (Promega, Nr.: E2311), and was added to the cells prior to incubation for 48 hours at 37° C., 5% CO2. The transfection medium was exchanged for the selection medium which contains additional G418 (2 mg/ml, Invitrogen, Nr.: 10131) and the cells were seeded into 384 well plates (300 cells/well). After a few weeks, the remaining surviving cells were tested with a voltage sensitive dye (Membrane Potential Assay Kit, Molecular Devices Nr.: R8034) for K+ channel expression. Positive cell clones were purified by the limited dilution technique. For this the clone with the highest and most robust signal in the voltage sensitive dye assay was further subcloned (incubated) in 384 well plates (0.7 cells/well) in order to obtain clonal purity. This generated a final stable CHO cell line expressing the C. elegans Slo-1a.
Cells were cultured at 37° C. and 5% CO2 in MEMalpha with Gutamax I (Invitrogen, Nr.: 32571), supplemented with 10% (v/v) heat inactivated fetal bovine serum (Invitrogen, Nr.: 10500), G418 (1 mg/ml, Invitrogen, Nr.: 10131). Cells were detached using Accutase (Sigma, Nr.: A6964).
Membrane Potential Measurements
Laboratory compound testing was performed on 384-well microtiter plates (MTPs, Greiner, Nr.: 781092). 8000 cells/well were plated onto 384-well MTPs and cultured for 20 to 24 hours at 37° C. and 5% CO2. After removal of the cell culture medium, the cells were washed once with tyrode (150 mM NaCl, 0.3 mM KCl, 2 mM CaCl2, 1 mM MgCl2, 0.8 mM NaH2PO4, 5 mM Glucose, 28 mM Hepes, pH 7.4) and then loaded with the voltage sensitive dye of the Membrane Potential Assay Kit diluted in tyrode for 1 h at room temperature.
After starting the measurement of fluorescence using a FLIPR Tetra (Molecular Devices, Exc. 510-545 nm, Emm. 565-625 nm), test compounds were added followed by the addition of KCl tyrode (final assay concentration: 70 mM KCl, 2 mM CaCl2, 1 mM MgCl2, 0.8 mM NaH2PO4, 5 mM Glucose, 28 mM Hepes, pH 7.4, including the voltage sensitive dye). The measurement was completed after 7 minutes.
The data were evaluated by using the ActivityBase XLfit software (IDBS) for curve fitting and calculation of the half-maximal effective concentration (EC50) and are reported as negative decadic logarithm (pE50).

Sequence of D. immitis Slo-1 (I0DFK5 1-1119): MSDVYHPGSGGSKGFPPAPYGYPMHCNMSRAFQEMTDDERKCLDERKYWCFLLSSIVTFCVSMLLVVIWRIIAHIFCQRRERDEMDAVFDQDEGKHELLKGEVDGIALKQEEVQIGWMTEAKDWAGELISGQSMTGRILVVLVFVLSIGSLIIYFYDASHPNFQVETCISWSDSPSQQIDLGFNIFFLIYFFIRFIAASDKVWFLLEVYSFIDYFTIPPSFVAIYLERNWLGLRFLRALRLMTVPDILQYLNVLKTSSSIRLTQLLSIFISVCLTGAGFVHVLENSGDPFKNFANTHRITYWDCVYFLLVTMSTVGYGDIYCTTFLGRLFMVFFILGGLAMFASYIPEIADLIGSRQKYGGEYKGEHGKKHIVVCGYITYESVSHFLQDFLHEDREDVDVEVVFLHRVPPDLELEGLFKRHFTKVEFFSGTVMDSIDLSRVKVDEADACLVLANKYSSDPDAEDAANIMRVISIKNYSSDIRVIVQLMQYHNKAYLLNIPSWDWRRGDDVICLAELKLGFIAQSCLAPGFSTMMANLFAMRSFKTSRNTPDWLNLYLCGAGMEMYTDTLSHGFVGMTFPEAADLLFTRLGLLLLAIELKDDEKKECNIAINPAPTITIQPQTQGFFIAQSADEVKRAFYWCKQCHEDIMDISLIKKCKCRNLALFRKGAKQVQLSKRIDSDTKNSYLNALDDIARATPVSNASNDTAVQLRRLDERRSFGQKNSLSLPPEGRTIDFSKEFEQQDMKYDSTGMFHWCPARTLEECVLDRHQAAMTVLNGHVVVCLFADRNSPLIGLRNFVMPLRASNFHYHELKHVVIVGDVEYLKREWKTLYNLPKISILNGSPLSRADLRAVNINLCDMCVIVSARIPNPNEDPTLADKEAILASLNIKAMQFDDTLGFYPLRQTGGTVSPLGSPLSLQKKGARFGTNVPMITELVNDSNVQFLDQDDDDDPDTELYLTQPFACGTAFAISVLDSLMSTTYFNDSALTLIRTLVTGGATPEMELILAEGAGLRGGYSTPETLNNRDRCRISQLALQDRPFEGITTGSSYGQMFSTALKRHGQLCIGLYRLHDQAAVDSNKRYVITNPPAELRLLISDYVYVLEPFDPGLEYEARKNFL

O=C(N[C@H]1CCOc2ccccc21)c1cnc2c(-c3cc(F)cc(F)c3F)ncc(F)c2c1N1CCOCC1 [Example T1-8, N-[(4S)-3,4-dihydro-2H-1-benzopyran-4-yl]-5-fluoro-4-(morpholin-4-yl)-8-(2,3,5-trifluorophenyl)-1,7-naphthyridine-3-carboxamide] was tested, and the EC50 (D. immitis Slo-1) was 31.6 to 316 nM, the inhibition at 1 µg/mL [1] was > 80% and the inhibition at 10 µg/mL [1] was > 80%. The EC50 (Dirofilaria immitis) was < 0.1 µg/mL and the EC50 [2] was < 0.1 µg/mL.
For COc1cnc(-c2cc(F)cc(F)c2F)c2ncc(C(=O)N[C@H]3CCOc4ccccc43)c(N(C)C)c12 [Example T1-13, N-[(4S)-3,4-dihydro-2H-1-benzopyran-4-yl]-4-(dimethylamino)-5-methoxy-8-(2,3,5-trifluorophenyl)-1,7-naphthyridine-3-carboxamide], the EC50 (D. immitis Slo-1) was 31.6 to 316 nM, the inhibition at 1 µg/mL [1] was > 80% and the inhibition at 10 µg/mL [1] was > 80%. The EC50 (Dirofilaria immitis) was < 0.1 µg/mL and the EC50 [2] was < 0.1 µg/mL.
O=C(N[C@H]1CCOc2ccccc21)c1cnc2c(-c3cccc(Cl)c3Cl)nccc2c1 [Example T1-15, 8-(2,3-dichlorophenyl)-N-[(4S)-3,4-dihydro-2H-chromen-4-yl]-1,7-naphthyridine-3-carboxamide] showed an EC50 (C. elegans Slo-1a) of 31.6 to 316 nM.
For CN(C)c1c(C(=O)N[C@H]2CCOc3ccccc32)cnc2c(-c3cccc(Cl)c3Cl)cncc12 [Example T2-2, 8-(2,3-Dichlorophenyl)-N-[(4S)-3,4-dihydro-2H-chromen-4-yl]-4-(dimethylamino)-1,6-naphthyridine-3-carboxamide], the EC50 (C. elegans Slo-1a) was 3.16 to 31.6 nM, the inhibition at 10 µg/mL [1] was > 80% and the EC50 [2] was < 0.1 µg/mL.
With COc1ncc2c(N3CCOCC3)c(C(=O)N[C@H]3CCOc4ccccc43)cnc2c1-c1cccc(Cl)c1Cl [Example T2-6, 8-(2,3-dichlorophenyl)-N-[(4S)-3,4-dihydro-2H-1-benzopyran-4-yl]-7-methoxy-4-(morpholin-4-yl)-1,6-naphthyridine-3-carboxamide] the EC50 (D. immitis Slo-1) was 3.16 to 31.6 nM, the EC50 (Dirofilaria immitis) was < 0.1 µg/mL and the EC50 [2] was < 0.1 µg/mL.
In the case of COc1ncc2c(N(C)C)c(C(=O)N[C@H]3CCOc4ccccc43)cnc2c1-c1cccc(Cl)c1Cl [Example T2-7, 8-(2,3-dichlorophenyl)-N-[(4S)-3,4-dihydro-2H-1-benzopyran-4-yl]-4-(dimethylamino)-7-methoxy-1,6-naphthyridine-3-carboxamide], the EC50 (D. immitis Slo-1) is reported as 3.16 to 31.6 nM, the EC50 (Dirofilaria immitis) is reported as < 0.1 µg/mL and the EC50 [2] is reported as < 0.1 µg/mL.
COc1ncc2c(N(C)C)c(C(=O)N[C@H]3CCOc4ccccc43)cnc2c1-c1cc(Cl)cc(Cl)c1 [Example T2-8, 8-(3,5-dichlorophenyl)-N-[(4S)-3,4-dihydro-2H-1-benzopyran-4-yl]-4-(dimethylamino)-7-methoxy-1,6-naphthyridine-3-carboxamide] was tested, and the EC50 (D. immitis Slo-1) was 3.16 to 31.6 nM, the inhibition at 1 µg/mL [1] was > 80% and the inhibition at 10 µg/mL [1] was > 80%. For the same compound, the EC50 (Dirofilaria immitis) was < 0.1 µg/mL and the EC50 [2] was < 0.1 µg/mL.
In the case of COc1ncc2c(N3CCOCC3)c(C(=O)N[C@H]3CCOc4ccccc43)cnc2c1-c1cc(Cl)cc(Cl)c1 [Example T2-9, 8-(3,5-dichlorophenyl)-N-[(4S)-3,4-dihydro-2H-1-benzopyran-4-yl]-7-methoxy-4-(morpholin-4-yl)-1,6-naphthyridine-3-carboxamide], the EC50 (D. immitis Slo-1) is reported as 3.16 to 31.6 nM, the inhibition at 1 µg/mL [1] is reported as > 80% and the inhibition at 10 µg/mL [1] is reported as > 80%. The EC50 (Dirofilaria immitis) was < 0.1 µg/mL and the EC50 [2] was < 0.1 µg/mL.
With COc1ncc(-c2cc(Cl)cc(Cl)c2)c2ncc(C(=O)N[C@H]3CCOc4ccccc43)c(N3CCOCC3)c12 [Example T2-10, 8-(3,5-dichlorophenyl)-N-[(4S)-3,4-dihydro-2H-1-benzopyran-4-yl]-5-methoxy-4-(morpholin-4-yl)-1,6-naphthyridine-3-carboxamide] the EC50 (D. immitis Slo-1) was 31.6 to 316 nM, the inhibition at 1 µg/mL [1] was > 80% and the inhibition at 10 µg/mL [1] was > 80%. The EC50 (Dirofilaria immitis) was < 0.1 µg/mL and the EC50 [2] was < 0.1 µg/mL.
With CN(C)c1c(C(=O)N[C@H]2CCOc3ccccc32)cnc2c(-c3cc(F)cc(F)c3F)c(Cl)cnc12 [Example T3-5, 7-chloro-N-[(4S)-3,4-dihydro-2H-1-benzopyran-4-yl]-4-(dimethylamino)-8-(2,3,5-trifluorophenyl)-1,5-naphthyridine-3-carboxamide] the EC50 (D. immitis Slo-1) was 3.16 to 31.6 nM, the EC50 (Dirofilaria immitis) was < 0.1 µg/mL and the EC50 [2] was < 0.1 µg/mL.
O=C(N[C@H]1CCOc2ccccc21)c1cnc2c(-c3cc(F)cc(F)c3F)c(Cl)cnc2c1N1CCOCC1 [Example T3-6, 7-chloro-N-[(4S)-3,4-dihydro-2H-1-benzopyran-4-yl]-4-(morpholin-4-yl)-8-(2,3,5-trifluorophenyl)-1,5-naphthyridine-3-carboxamide] was tested, and the EC50 (D. immitis Slo-1) was 3.16 to 31.6 nM, the EC50 (Dirofilaria immitis) was < 0.1 µg/mL and the EC50 [2] was < 0.1 µg/mL.
With CN(C)c1c(C(=O)N[C@H]2CCOc3ccccc32)cnc2c(-c3cc(Cl)cc(Cl)c3)c(Cl)cnc12 [Example T3-7, 7-chloro-8-(3,5-dichlorophenyl)-N-[(4S)-3,4-dihydro-2H-1-benzopyran-4-yl]-4-(dimethylamino)-1,5-naphthyridine-3-carboxamide] the EC50 (D. immitis Slo-1) was 3.16 to 31.6 nM, the EC50 (Dirofilaria immitis) was < 0.1 µg/mL and the EC50 [2] was < 0.1 µg/mL.
CN(C)c1c(C(=O)N[C@H]2CCOc3ccccc32)cnc2c(-c3cccc(Cl)c3Cl)c(Cl)cnc12 [Example T3-8, 7-chloro-8-(2,3-dichlorophenyl)-N-[(4S)-3,4-dihydro-2H-1-benzopyran-4-yl]-4-(dimethylamino)-1,5-naphthyridine-3-carboxamide] was tested, and the EC50 (D. immitis Slo-1) was 3.16 to 31.6 nM, the inhibition at 1 µg/mL [1] was > 80% and the inhibition at 10 µg/mL [1] was > 80%. The EC50 (Dirofilaria immitis) was < 0.1 µg/mL and the EC50 [2] was < 0.1 µg/mL.
O=C(N[C@H]1CCOc2ccccc21)c1cnc2c(-c3cccc(Cl)c3Cl)c(Cl)cnc2c1N1CCOCC1 [Example T3-9, 7-chloro-8-(2,3-dichlorophenyl)-N-[(4S)-3,4-dihydro-2H-1-benzopyran-4-yl]-4-(morpholin-4-yl)-1,5-naphthyridine-3-carboxamide] was tested, and the EC50 (D. immitis Slo-1) was 3.16 to 31.6 nM, the inhibition at 1 µg/mL [1] was > 80% and the inhibition at 10 µg/mL [1] was > 80%. For the same compound, the EC50 (Dirofilaria immitis) was < 0.1 µg/mL and the EC50 [2] was < 0.1 µg/mL.
In the case of COc1cnc2c(N(C)C)c(C(=O)N[C@H]3CCOc4ccccc43)cnc2c1-c1cc(Cl)cc(Cl)c1 [Example T3-10, 8-(3,5-dichlorophenyl)-N-[(4S)-3,4-dihydro-2H-1-benzopyran-4-yl]-4-(dimethylamino)-7-methoxy-1,5-naphthyridine-3-carboxamide], the EC50 (D. immitis Slo-1) is reported as 3.16 to 31.6 nM, the inhibition at 1 µg/mL [1] is reported as > 80% and the inhibition at 10 µg/mL [1] is reported as > 80%. The EC50 (Dirofilaria immitis) was < 0.1 µg/mL and the EC50 [2] was < 0.1 µg/mL.
For CN(C)c1c(C(=O)N[C@H]2CCOc3ccccc32)cnc2c(-c3cc(Cl)cc(Cl)c3)c(F)cnc12 [Example T3-11, 8-(3,5-dichlorophenyl)-N-[(4S)-3,4-dihydro-2H-1-benzopyran-4-yl]-4-(dimethylamino)-7-fluoro-1,5-naphthyridine-3-carboxamide], the EC50 (D. immitis Slo-1) was 3.16 to 31.6 nM, the inhibition at 1 µg/mL [1] was > 80% and the inhibition at 10 µg/mL [1] was > 80%. For the same compound, the EC50 (Dirofilaria immitis) was < 0.1 µg/mL and the EC50 [2] was < 0.1 µg/mL.
In the case of COc1cnc2c(N(C)C)c(C(=O)N[C@H]3CCOc4ccccc43)cnc2c1-c1cccc(Cl)c1Cl [Example T3-12, 8-(2,3-dichlorophenyl)-N-[(4S)-3,4-dihydro-2H-1-benzopyran-4-yl]-4-(dimethylamino)-7-methoxy-1,5-naphthyridine-3-carboxamide], the EC50 (D. immitis Slo-1) is reported as 3.16 to 31.6 nM, the inhibition at 1 µg/mL [1] is reported as > 80% and the inhibition at 10 µg/mL [1] is reported as > 80%. For the same compound, the EC50 (Dirofilaria immitis) was < 0.1 µg/mL and the EC50 [2] was < 0.1 µg/mL.
With COc1cnc2c(N3CCOCC3)c(C(=O)N[C@H]3CCOc4ccccc43)cnc2c1-c1cccc(Cl)c1Cl [Example T3-14, 8-(2,3-dichlorophenyl)-N-[(4S)-3,4-dihydro-2H-1-benzopyran-4-yl]-7-methoxy-4-(morpholin-4-yl)-1,5-naphthyridine-3-carboxamide] the EC50 (D. immitis Slo-1) was 3.16 to 31.6 nM, the inhibition at 1 µg/mL [1] was > 80% and the inhibition at 10 µg/mL [1] was > 80%. For the same compound, the EC50 (Dirofilaria immitis) was < 0.1 µg/mL and the EC50 [2] was < 0.1 µg/mL.
With COc1cnc2c(N3CCOCC3)c(C(=O)N[C@H]3CCOc4ccccc43)cnc2c1-c1cc(F)cc(F)c1F [Example T3-16, N-[(4S)-3,4-dihydro-2H-1-benzopyran-4-yl]-7-methoxy-4-(morpholin-4-yl)-8-(2,3,5-trifluorophenyl)-1,5-naphthyridine-3-carboxamide] the EC50 (D. immitis Slo-1) was 3.16 to 31.6 nM, the inhibition at 1 µg/mL [1] was > 80% and the inhibition at 10 µg/mL [1] was > 80%. For the same compound, the EC50 (Dirofilaria immitis) was < 0.1 µg/mL and the EC50 [2] was < 0.1 µg/mL.
In the case of O=C(N[C@H]1CCOc2ccccc21)c1cnc2c(-c3cccc(Cl)c3Cl)c(F)cnc2c1N1CCOCC1 [Example T3-18, 8-(2,3-dichlorophneyl)-N-[(4S)-3,4-dihydro-2H-1-benzopyran-4-yl]-7-fluoro-4-(morpholin-4-yl)-1,5-naphthyridine-3-carboxamide], the EC50 (D. immitis Slo-1) is reported as 3.16 to 31.6 nM, the inhibition at 1 µg/mL [1] is reported as > 80% and the inhibition at 10 µg/mL [1] is reported as > 80%. The EC50 (Dirofilaria immitis) was < 0.1 µg/mL and the EC50 [2] was < 0.1 µg/mL.
In the case of CN(C)c1c(C(=O)N[C@H]2CCOc3ccccc32)cnc2c(-c3cc(F)cc(F)c3F)c(F)cnc12 [Example T3-19, N-[(4S)-3,4-dihydro-2H-1-benzopyran-4-yl]-4-(dimethylamino)-7-fluoro-8-(2,3,5-trifluorophenyl)-1,5-naphthyridine-3-carboxamide], the EC50 (D. immitis Slo-1) is reported as 3.16 to 31.6 nM, the inhibition at 1 µg/mL [1] is reported as > 80% and the inhibition at 10 µg/mL [1] is reported as > 80%. For the same compound, the EC50 (Dirofilaria immitis) was < 0.1 µg/mL and the EC50 [2] was < 0.1 µg/mL.
For CN(C)c1c(C(=O)N[C@H]2CCOc3ccccc32)nnc2c(-c3ccc(F)c(F)c3)cccc12 [Example T5-4, 8-(3,4-Difluorophenyl)-N-[(4S)-3,4-dihydro-2H-chromen-4-yl]-4-(dimethylamino)cinnoline-3-carboxamide], the EC50 (D. immitis Slo-1) was 31.6 to 316 nM, the EC50 (C. elegans Slo-1a) was 31.6 to 316 nM and the EC50 [2] was < 0.1 µg/mL.
